Measured values reported in PubChem BioAssay AID1963976 (Molecular Pharmacology Branch, DTP, NCI, 2024).

Tested on: 435261-313-R-J1-PDC tumor spheroid viability
Assay: Anticancer human tumor 435261-313-R-J1-PDC patient-derived colon adenocarcinoma cell line growth inhibition [PI3K]
Conditions: spheroids with HUVEC and MSC; for IC50: curve of first compound; for viability, T/C: stronger effect = lower value
Outline: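 Tumor cells grown as multi-cell spheroids with HUVEC endothelial cells and MSC fibroblast-like stroma were treated with targeted agents combined with inavolisib, alpelisib, duvelisib or copanlisib. Doses fell in half-log steps from near clinical Cmax, else from 10 microM. Viability was measured.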
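Further: spheroids exposed to compounds for 7 days.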

CC1(C)CCC(Nc2ncc(C(F)(F)F)c(-c3c[nH]c4c(P(C)(C)=O)c(C#N)ccc34)n2)CN1 (centres undefined) + CC(Nc1ccc2c(c1)OCCn1cc(N3C(=O)OCC3C(F)F)nc1-2)C(N)=O
IC50 (second compound 0.00316 µM): 1200 nM | IC50 (second compound 0.01 µM): 1040 nM | IC50 (second compound 0.0316 µM): < 31.6 nM | IC50 (second compound 0.1 µM): < 31.6 nM | IC50 (second compound 0.316 µM): < 31.6 nM | IC50 (second compound 1 µM): < 31.6 nM | viability, T/C (second compound 0.00316 µM, first compound 0.0316 µM): 46.7% | viability, T/C (second compound 0.00316 µM, first compound 0.1 µM): 58.8% | viability, T/C (second compound 0.00316 µM, first compound 0.316 µM): 43.8% | viability, T/C (second compound 0.00316 µM, first compound 1 µM): 58.8% | viability, T/C (second compound 0.00316 µM, first compound 3.16 µM): 39.4% | viability, T/C (second compound 0.00316 µM, first compound 10 µM): 0.93% | viability, T/C (second compound 0.01 µM, first compound 0.0316 µM): 52% | viability, T/C (second compound 0.01 µM, first compound 0.1 µM): 53.4% | viability, T/C (second compound 0.01 µM, first compound 0.316 µM): 48% | viability, T/C (second compound 0.01 µM, first compound 1 µM): 51.3% | viability, T/C (second compound 0.01 µM, first compound 3.16 µM): 38.6% | viability, T/C (second compound 0.01 µM, first compound 10 µM): 0.98% | viability, T/C (second compound 0.0316 µM, first compound 0.0316 µM): 44.4% | viability, T/C (second compound 0.0316 µM, first compound 0.1 µM): 47.9% | viability, T/C (second compound 0.0316 µM, first compound 0.316 µM): 38.8% | viability, T/C (second compound 0.0316 µM, first compound 1 µM): 40.8% | viability, T/C (second compound 0.0316 µM, first compound 3.16 µM): 33.4% | viability, T/C (second compound 0.0316 µM, first compound 10 µM): 0.99% | viability, T/C (second compound 0.1 µM, first compound 0.0316 µM): 30% | viability, T/C (second compound 0.1 µM, first compound 0.1 µM): 31.6% | viability, T/C (second compound 0.1 µM, first compound 0.316 µM): 27.2% | viability, T/C (second compound 0.1 µM, first compound 1 µM): 30.2% | viability, T/C (second compound 0.1 µM, first compound 3.16 µM): 24.5% | viability, T/C (second compound 0.1 µM, first compound 10 µM): 0.45% | viability, T/C (second compound 0.316 µM, first compound 0.0316 µM): 24.2% | viability, T/C (second compound 0.316 µM, first compound 0.1 µM): 22.8% | viability, T/C (second compound 0.316 µM, first compound 0.316 µM): 20.1% | viability, T/C (second compound 0.316 µM, first compound 1 µM): 20.2% | viability, T/C (second compound 0.316 µM, first compound 3.16 µM): 15% | viability, T/C (second compound 0.316 µM, first compound 10 µM): 0.63% | viability, T/C (second compound 1 µM, first compound 0.0316 µM): 20.9% | viability, T/C (second compound 1 µM, first compound 0.1 µM): 15% | viability, T/C (second compound 1 µM, first compound 0.316 µM): 17% | viability, T/C (second compound 1 µM, first compound 1 µM): 18.8% | viability, T/C (second compound 1 µM, first compound 3.16 µM): 10.4% | viability, T/C (second compound 1 µM, first compound 10 µM): 0.26%

Cn1cnc2c(F)c(Nc3ccc(Br)cc3Cl)c(C(=O)NOCCO)cc21 + CC(Nc1ncnc2nc[nH]c12)c1cc2cccc(Cl)c2c(=O)n1-c1ccccc1
IC50 (second compound 0.0316 µM): 15.5 nM | IC50 (second compound 0.1 µM): 10.7 nM | IC50 (second compound 0.316 µM): 16 nM | IC50 (second compound 1 µM): < 9.49 nM | IC50 (second compound 3.16 µM): < 9.49 nM | IC50 (second compound 10 µM): < 9.49 nM | viability, T/C (second compound 0.0316 µM, first compound 0.00949 µM): 60.3% | viability, T/C (second compound 0.0316 µM, first compound 0.03 µM): 35.7% | viability, T/C (second compound 0.0316 µM, first compound 0.0949 µM): 26.9% | viability, T/C (second compound 0.0316 µM, first compound 0.3 µM): 25.1% | viability, T/C (second compound 0.0316 µM, first compound 0.949 µM): 22.2% | viability, T/C (second compound 0.0316 µM, first compound 3 µM): 18.6% | viability, T/C (second compound 0.1 µM, first compound 0.00949 µM): 51.9% | viability, T/C (second compound 0.1 µM, first compound 0.03 µM): 34.6% | viability, T/C (second compound 0.1 µM, first compound 0.0949 µM): 23% | viability, T/C (second compound 0.1 µM, first compound 0.3 µM): 25% | viability, T/C (second compound 0.1 µM, first compound 0.949 µM): 21.7% | viability, T/C (second compound 0.1 µM, first compound 3 µM): 16.6% | viability, T/C (second compound 0.316 µM, first compound 0.00949 µM): 59.9% | viability, T/C (second compound 0.316 µM, first compound 0.03 µM): 38.6% | viability, T/C (second compound 0.316 µM, first compound 0.0949 µM): 25% | viability, T/C (second compound 0.316 µM, first compound 0.3 µM): 22.7% | viability, T/C (second compound 0.316 µM, first compound 0.949 µM): 21.4% | viability, T/C (second compound 0.316 µM, first compound 3 µM): 13.9% | viability, T/C (second compound 1 µM, first compound 0.00949 µM): 43.4% | viability, T/C (second compound 1 µM, first compound 0.03 µM): 34.5% | viability, T/C (second compound 1 µM, first compound 0.0949 µM): 26.4% | viability, T/C (second compound 1 µM, first compound 0.3 µM): 22.2% | viability, T/C (second compound 1 µM, first compound 0.949 µM): 21% | viability, T/C (second compound 1 µM, first compound 3 µM): 12.1% | viability, T/C (second compound 3.16 µM, first compound 0.00949 µM): 38.8% | viability, T/C (second compound 3.16 µM, first compound 0.03 µM): 29.6% | viability, T/C (second compound 3.16 µM, first compound 0.0949 µM): 21% | viability, T/C (second compound 3.16 µM, first compound 0.3 µM): 20.6% | viability, T/C (second compound 3.16 µM, first compound 0.949 µM): 19.5% | viability, T/C (second compound 3.16 µM, first compound 3 µM): 12.3% | viability, T/C (second compound 10 µM, first compound 0.00949 µM): 22.3% | viability, T/C (second compound 10 µM, first compound 0.03 µM): 21.1% | viability, T/C (second compound 10 µM, first compound 0.0949 µM): 19.6% | viability, T/C (second compound 10 µM, first compound 0.3 µM): 16.3% | viability, T/C (second compound 10 µM, first compound 0.949 µM): 15.9% | viability, T/C (second compound 10 µM, first compound 3 µM): 9.75%
